# Numbering of substitutions follows the chain as printed. Where “and” joins values, the source holds several entries; their conditions need not be identical. Equal entries are not always repeated.
# Key:
# Format in all cases: cell-based
# hTA1 C96S = target: T1, hTA1 C96S (Homo sapiens, UniProt Q96RJ0, C96S); assay: GloSensor cAMP accumulation assay, C96S mutant; conditions: log[Compound]
# T1 construct: expressed in transfected cells; host or cells: HEK293T
# T1 sequence (Q96RJ0 1-339 C96S): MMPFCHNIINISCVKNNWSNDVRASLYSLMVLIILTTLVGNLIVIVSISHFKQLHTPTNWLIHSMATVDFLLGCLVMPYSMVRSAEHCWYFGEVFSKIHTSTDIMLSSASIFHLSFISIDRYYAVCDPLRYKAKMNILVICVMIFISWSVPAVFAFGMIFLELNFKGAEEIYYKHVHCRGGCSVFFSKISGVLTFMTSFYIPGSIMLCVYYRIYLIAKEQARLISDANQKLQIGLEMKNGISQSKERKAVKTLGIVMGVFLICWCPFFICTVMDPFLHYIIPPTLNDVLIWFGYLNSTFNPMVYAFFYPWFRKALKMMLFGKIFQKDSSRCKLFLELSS
# hTA1 C178S = target: T2, hTA1 C178S (Homo sapiens, UniProt Q96RJ0, C178S); assay: GloSensor cAMP accumulation assay, C178S mutant; conditions: for C178S - Normalized Luminescence Counts (N=2): log[Compound], single replicates
# T2 construct: expressed in transfected cells; host or cells: HEK293T
# T2 sequence (Q96RJ0 1-339 C178S): T1 sequence (Q96RJ0 1-339 C96S) with S96C, C178S
# hTA1 S107C = target: T3, hTA1 S107C (Homo sapiens, UniProt Q96RJ0, S107C); assay: GloSensor cAMP accumulation assay, S107C mutant;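 further: cells transiently co-expressing receptor and GloSensor biosensor, luminescence read after 30 min agonist exposure at room temperature, concentration-response fitted by nonlinear regression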
# T3 construct: expressed in transfected cells; host or cells: HEK293T
# T3 sequence (Q96RJ0 1-339 S107C): T1 sequence (Q96RJ0 1-339 C96S) with S96C, S107C
# hTA1 b2N = target: T4, hTA1 b2N (Homo sapiens, UniProt Q96RJ0); assay: GloSensor cAMP accumulation assay, b2N construct; conditions: b2N, n=2
# T4 construct: read by me as the first 25 residues of β2AR (N); expressed in transfected cells; host or cells: HEK293T
# [1] = C178S, each row one experiment (N=2), 3 replicates
# T4 sequence (Q96RJ0 with tags, fused parts or gaps): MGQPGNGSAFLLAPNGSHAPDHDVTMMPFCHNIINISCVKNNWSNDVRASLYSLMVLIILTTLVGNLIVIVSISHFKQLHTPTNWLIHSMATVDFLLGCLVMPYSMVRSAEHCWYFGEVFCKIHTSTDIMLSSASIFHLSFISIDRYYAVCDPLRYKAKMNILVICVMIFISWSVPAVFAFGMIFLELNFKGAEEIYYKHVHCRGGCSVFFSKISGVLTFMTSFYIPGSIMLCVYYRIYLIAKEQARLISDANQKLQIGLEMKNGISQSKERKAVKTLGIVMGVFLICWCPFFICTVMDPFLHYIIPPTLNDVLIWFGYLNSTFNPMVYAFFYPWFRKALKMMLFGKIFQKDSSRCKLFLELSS
smiles,measurement,setting,value
"NCCc1ccc(Oc2ccc(O)cc2)c(I)c1 [T1AM, 3-iodothyronamine]",Normalized Luminescence Counts,"hTA1 C96S; C96S, M = -11, single replicates (N=2)",1.4045 and 0.7455 (2×) and 34.0975 (2×) and 14.7315
same,Normalized Luminescence Counts,"hTA1 C96S; C96S, M = -11.522, single replicates (N=2)",1.4045 (2×) and -0.5726 and 24.4145
same,Normalized Luminescence Counts,"hTA1 C96S; M = -11.522, single replicates, mutant block above C178S",-0.4742 (2×) and -0.6563 and 0.6424 and -0.05214 and -0.3727
same,Normalized Luminescence Counts,"hTA1 C96S; M = -12, single replicates, mutant block above C178S",-0.08731 (2×) and -0.5653 and 0.1081 and 0.001279 (2×)
same,Normalized Luminescence Counts,"hTA1 C96S; M = -12.522, single replicates, mutant block above C178S",-0.2011 and 0.5045 and -0.6791 and -0.1056 and 0.9095 and -0.05214
same,"pEC50 values, Mean",hTA1 C178S; [1],5.899 and 6.116
same,"ΔpEC50 values (each mutant value - WT average), Mean",hTA1 C178S; [1],-0.2302 and -0.01318
same,Span ± SEM (Emax normalized to β-PEA),"hTA1 C178S; C178S, n=2",86.82 ± 7.63
same,pEC50 ± SEM,"hTA1 C178S; C178S, n=2",6.01 ± 0.05
same,EC50,"hTA1 C178S; C178S, n=2, read-out: EC50",983 nM
same,"Emax values, Mean","hTA1 C178S; C178S, β-PEA = 100, each row one experiment (N=2), 3 replicates",79.1908 and 94.4471
same,C178S - Normalized Luminescence Counts (N=2),hTA1 C178S; M = -5,73.1003 and 72.1657 and 63.8478 and 81.3738 and 108.419 and 79.3694
same,C178S - Normalized Luminescence Counts (N=2),hTA1 C178S; M = -5.522,52.0253 and 55.0627 and 58.1468 and 73.8647 and 83.1688 and 53.1323
same,C178S - Normalized Luminescence Counts (N=2),hTA1 C178S; M = -6,32.3989 and 32.726 and 30.2026 and 62.7356 and 57.5001 and 49.3328
same,C178S - Normalized Luminescence Counts (N=2),hTA1 C178S; M = -6.522,18.0529 and 16.5576 and 18.9875 and 30.7245 and 26.2071 and 22.4375
same,C178S - Normalized Luminescence Counts (N=2),hTA1 C178S; M = -7,4.642 and 4.221 and 4.735 and 9.753 and 8.496 and 8.018
same,C178S - Normalized Luminescence Counts (N=2),hTA1 C178S; M = -7.522,0.763 and 0.4359 and 0.01533 and 0.9572 and 2.124 and 0.4486
same,C178S - Normalized Luminescence Counts (N=2),hTA1 C178S; M = -8,-0.8725 and -0.6389 and -0.8258 and 3.769 and 2.842 and 2.124
same,C178S - Normalized Luminescence Counts (N=2),hTA1 C178S; M = -8.522,-0.6389 and -1.6202 and -1.667 and 1.376 and 0.02978 and -2.184
same,C178S - Normalized Luminescence Counts (N=2),hTA1 C178S; M = -9,-0.5921 and -1.854 and -1.48 and 0.05969 and 0.9871 and -1.316
same,C178S - Normalized Luminescence Counts (N=2),hTA1 C178S; M = -9.522,-1.293 and -1.48 and -0.6389 and -0.03006 and -0.3591 and -0.4489
same,C178S - Normalized Luminescence Counts (N=2),hTA1 C178S; M = -10,-0.2183 and -0.5454 and -0.966 and -0.5087 and 0.4187 and -1.556
same,C178S - Normalized Luminescence Counts (N=2),hTA1 C178S; M = -10.522,-0.7791 and -0.8258 and -0.8725 and -0.2993 and -0.5386 and -2.962
same,C178S - Normalized Luminescence Counts (N=2),hTA1 C178S; M = -11,-1.433 and -0.8258 and -0.4987 and 1.047 and 0.4785 and -0.2993
same,C178S - Normalized Luminescence Counts (N=2),hTA1 C178S; M = -11.522,-1.293 and -0.6389 and -1.059 and 2.124 and 1.1367 and -0.9276
same,C178S - Normalized Luminescence Counts (N=2),hTA1 C178S; M = -12,-0.1249 and -0.6856 and 0.06206 and -0.2096 and -0.5386 and -1.227
same,C178S - Normalized Luminescence Counts (N=2),hTA1 C178S; M = -12.522,-0.7323 and -0.7791 and -0.8725 and 0.2691 and -0.419 and 0.299
same,ΔEmax values (each mutant value - WT average),hTA1 S107C; S107C mutant minus WT average,9.303
same,"Emax values, Mean","hTA1 S107C; S107C mutant, β-PEA = 100, each line an independent experiment, 3 replicates",79.7491 and 64.3505
same,Span ± SEM (Emax normalized to β-PEA),"hTA1 S107C; S107C, n=2",72.05 ± 7.70
same,pEC50 ± SEM,"hTA1 S107C; S107C, n=2",5.87 ± 0.53
same,EC50,"hTA1 S107C; S107C, n=2, read-out: EC50",1350 nM
same,Span ± SEM (Emax normalized to β-PEA),hTA1 b2N,80.48
same,pEC50 ± SEM,hTA1 b2N,6.65 ± 0.05
same,EC50,hTA1 b2N; read-out: EC50,224 nM
